How the values were obtained:
[1] = biological target: Recombinant human 92 kDa gelatinase (MMP-9) (Homo sapiens, UniProt P14780); assay: MMP-9 enzyme inhibition assay, coumarin-labeled peptide substrate McaPLGLDpaAR; format: biochemical
Experimental: (§1) Compounds of the invention were tested to assess their activities as inhibitors of MMP-1, MMP-2, MMP-9, MMP-14 and MMP-12.
Compounds of the invention were tested for inhibitory activity against 92 kDa gelatinase (MMP-9) in an assay using a coumarin-labeled peptide substrate, (7-methoxycoumarin-4-yl)acetyl-Pro-Leu-Gly-Leu-(3-[2,4-dinitrophenyl]-L-2,3diaminopropionyl)-Ala-Arg-NH2 (McaPLGLDpaAR) (Knight et al, FEBS Lett. 1992; 263-266).
(§2) Stock solutions were made up as follows: Assay Butter: 100 mM Tris-HCl pH 7.6 containing 100 mM NaCl, 10 mM CaCl2, and 0.05% Brij 35.
(§3) Substrate: 0.4 mM McaPLGLDpaAR (from Bachem) (0.437 mg/ml) stock solution in 100% DMSO (stored at −20° C.). Dilute to 8 μM in assay butter.
Enzyme: Recombinant human 92 kDa gelatinase (MMP-9; APMA (4-aminophenyl mercuric acetate)-activated if necessary) appropriately diluted in assay butter.
(§4) Test Compounds were prepared initially as 10 mM compound solution in 100% DMSO, diluted to 1 mM in 100% DMSO, then serially diluted 3-fold in 100% DMSO across columns 1-10 of a 96-well microtitre plate Assay concentration range, 100 μM (column 1) to 5.1 nM (column 10).
(§5) The assay was performed in a total volume of 100 μL per well in 96-well microtitre plates. Activated enzyme (20 μL) was added to the wells followed by 20 μL of assay butter. Appropriate concentrations of test compounds dissolved in 10 μL of DMSO were then added followed by 50 μL of McaPLGLDpaAR (8 μM, prepared by dilution of DMSO stock in assay butter). For each as say ten concentrations of test compound were examined in duplicate. Control wells lack either enzyme or test compound. The reactions were incubated at 37° C. for 2 hours. The fluorescence at 405 nm was measured immediately with an SLT Fluostar fluorometer (SLT Labinstruments GmbH, Grödig, Austria) using 320 nm excitation, without stopping the reaction.
(§6) The effect of the test compound was determined from the dose response curve generated by the 10 duplicate concentrations of inhibitor. The IC50 (the concentration of compound required to give a 50% decrease in enzyme activity) was obtained by fitting data to the equation, Y=a+((b−a)/(1+(c/X)^d)). (Y=inhibition achieved for a particular dose; X=the dose in nM; a=minimum y or zero % inhibition; b=maximum y or 100% inhibition; c=is the IC50; d=is the slope). The result was rounded to one significant figure.

MMP-2 = biological target: T1, MMP-2 (Homo sapiens, UniProt P08253); assay: MMP-2 enzyme inhibition assay, coumarin-labelled peptide substrate McaPLGLDpaAR; format: biochemical
T1 sequence (P08253 110-660): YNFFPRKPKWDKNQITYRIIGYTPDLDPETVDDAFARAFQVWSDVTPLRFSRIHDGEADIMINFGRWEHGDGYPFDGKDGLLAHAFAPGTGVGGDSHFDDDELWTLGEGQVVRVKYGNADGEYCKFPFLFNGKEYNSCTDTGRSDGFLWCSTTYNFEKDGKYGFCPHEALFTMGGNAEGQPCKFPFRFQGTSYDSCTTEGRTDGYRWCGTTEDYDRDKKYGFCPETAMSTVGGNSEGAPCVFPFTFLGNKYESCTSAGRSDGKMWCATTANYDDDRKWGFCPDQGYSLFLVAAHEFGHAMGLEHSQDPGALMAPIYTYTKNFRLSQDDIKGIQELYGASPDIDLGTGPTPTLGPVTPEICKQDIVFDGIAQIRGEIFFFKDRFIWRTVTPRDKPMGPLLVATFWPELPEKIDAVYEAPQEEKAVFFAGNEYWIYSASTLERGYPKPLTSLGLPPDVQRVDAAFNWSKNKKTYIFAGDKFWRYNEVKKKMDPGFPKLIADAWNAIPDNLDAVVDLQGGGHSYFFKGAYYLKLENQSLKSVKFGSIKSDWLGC
Experimental: as §1, §2, §3, §4, §5, §6
Compounds of the invention were tested for inhibitory activity against collagenase (MMP-2) in an assay using a coumarin-labelled peptide substrate, (7-methoxycoumarin-4-yl)acetyl-Pro-Leu-Gly-Leu-(3-[2,4-dinitrophenyl]-L-2,3diaminopropionyl)-Ala-Arg-NH2 (Mca PLGLDpaAR) (Knight et al, 1992, above). The protocol for this assay was as described for the MMP-9 assay above.

metalloelastase (MMP-12) = metalloelastase (MMP-12) (Homo sapiens, UniProt P39900); assay: MMP-12 enzyme inhibition assay, coumarin-labelled peptide substrate McaPLGLDpaAR; format: biochemical
Sequence of metalloelastase (MMP-12) (P39900 106-470): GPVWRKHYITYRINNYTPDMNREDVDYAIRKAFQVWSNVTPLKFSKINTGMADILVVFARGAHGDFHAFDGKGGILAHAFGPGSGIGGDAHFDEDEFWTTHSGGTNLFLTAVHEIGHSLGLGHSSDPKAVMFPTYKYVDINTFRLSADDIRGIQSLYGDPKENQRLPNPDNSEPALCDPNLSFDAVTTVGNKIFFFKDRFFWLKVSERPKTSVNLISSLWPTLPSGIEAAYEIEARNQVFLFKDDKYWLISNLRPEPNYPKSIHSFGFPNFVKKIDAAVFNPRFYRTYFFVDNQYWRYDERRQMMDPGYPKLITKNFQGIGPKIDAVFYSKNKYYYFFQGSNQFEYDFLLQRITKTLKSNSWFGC
Experimental: as §1, §2, §3, §4, §5, §6
Compounds of the invention were tested for inhibitory activity against metalloelastase (MMP-12) in an assay using a coumarin-labelled peptide substrate, (7-methoxycoumarin-4-yl)acetyl-Pro-Leu-Gly-Leu-(3-[2,4dinitrophenyl]-L-2,3-diaminopropionyl)-Ala-Arg-NH2 (McaPLGLDpaAR) (Knight et al, 1992, above). The protocol for this assay was as described for the MMP-9 assay above.

[2] = test system: IL-2-induced peritoneal recruitment of lymphocytes; assay: IL-2-induced peritoneal recruitment of lymphocytes; format: in vivo, C3H/HEN mice; settings: subcutaneous, 15 min prior to IL-2, cells collected 24 h after IL-2, mice
Experimental: Administration of IL-2 intraperitoneally causes migration of lymphocytes into the intraperitoneal cavity. This is a model for the cellular migration that occurs during inflammation.
C3H/HEN mice (Elevage Janvier, France) were intraperitoneally injected with IL-2 (Serono Pharmaceutical Research Institute, 20 μg/kg, in saline).
Compounds of the invention were suspended in 0.5% carboxymethylcellulose (CMC)/0.25% tween-20 and were administered by s.c. or p.o. route (10 ml/kg) 15 min prior to administration of IL-2.
Twenty-four hours after administration of IL-2, peritoneal white blood cells were collected by 3 successive lavages of the peritoneal cavity with 5 ml phosphate buffered saline (PBS)-1 mM EDTA (+4° C.). The suspension was centrifuged (1700 g×10 min at +4° C.). The resulting pellet was suspended in 1 ml PBS-1 mM EDTA.
Lymphocytes were identified and counted using a Beckman/Coulter counter.
The animals were divided into 6 groups (6 mice each group):
Group 1: (baseline) received 0.5% CMC/0.25% tween-20 (vehicle of compound of the invention) and saline (vehicle of IL-2);
Group 2: (control IL-2) received 0.5% CMC/0.25% tween-20 and injection of IL-2;
Group 3: Experimental group (Compound of the invention Dose 1) received a compound of the invention and injection of IL-2; […]
Inhibition of lymphocyte recruitment was calculated as follows: […]

Sequence of Recombinant human 92 kDa gelatinase (MMP-9) (P14780 107-707 limits assumed): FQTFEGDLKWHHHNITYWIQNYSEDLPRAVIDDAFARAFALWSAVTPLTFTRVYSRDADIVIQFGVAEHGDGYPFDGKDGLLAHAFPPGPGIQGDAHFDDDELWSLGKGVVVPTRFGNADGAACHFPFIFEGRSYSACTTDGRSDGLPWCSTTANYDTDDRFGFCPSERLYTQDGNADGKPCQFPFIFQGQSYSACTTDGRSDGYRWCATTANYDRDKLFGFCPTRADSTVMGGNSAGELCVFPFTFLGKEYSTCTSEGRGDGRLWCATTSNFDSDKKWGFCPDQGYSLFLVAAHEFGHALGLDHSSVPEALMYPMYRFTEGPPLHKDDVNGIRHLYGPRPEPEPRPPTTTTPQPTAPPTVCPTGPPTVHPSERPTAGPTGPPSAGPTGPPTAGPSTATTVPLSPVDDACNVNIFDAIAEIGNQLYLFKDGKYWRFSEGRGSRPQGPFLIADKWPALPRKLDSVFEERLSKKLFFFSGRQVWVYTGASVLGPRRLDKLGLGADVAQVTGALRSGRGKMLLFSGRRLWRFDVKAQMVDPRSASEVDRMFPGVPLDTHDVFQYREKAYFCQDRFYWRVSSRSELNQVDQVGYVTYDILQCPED

SMILES | IC50 [1] | IC50 (MMP-2) | IC50 (metalloelastase (MMP-12)) | % inhibition of IL-2-induced peritoneal recruitment of lymphocytes ([2]; 3 mg/kg) | % inhibition of IL-2-induced peritoneal recruitment of lymphocytes ([2]; 10 mg/kg)
COc1ccc(S(=O)(=O)N2[C@H](C(=O)NO)C[C@@H]3CCN(C(C)=O)C[C@@H]32)cc1 (relative stereo) [Example 2, rel-(2S,3aS,7aR)-6-acetyl-N-hydroxy-1-[(4-methoxyphenyl)sulfonyl]octahydro-1H-pyrrolo[2,3-c]pyridine-2-carboxamide] | 150 nM | 95 nM | 130 nM | – | –
COc1ccc(S(=O)(=O)N2[C@H](C(=O)NO)C[C@@H]3CCN(C(=O)CCC4CCCC4)C[C@@H]32)cc1 (relative stereo) [Example 4, rel-2S,3aS,7aR)-6-(3-cyclopentylpropanoyl)-N-hydroxy-1-[(4-methoxyphenyl)sulfonyl]octahydro-1H-pyrrolo[2,3-c]pyridine-2-carboxamide] | 780 nM | 640 nM | 640 nM | – | –
COCCOC(=O)N1CC[C@H]2C[C@@H](C(=O)NO)N(S(=O)(=O)c3ccc(OC)cc3)[C@H]2C1 (relative stereo) [Example 5, 2-methoxyethyl rel-(2S,3aS,7aR)-2-[(hydroxyamino)carbonyl]-1-[(4-methoxyphenyl)sulfonyl]octahydro-6H-pyrrolo[2,3-c]pyridine-6-carboxylate] | 1500 nM | 850 nM | 980 nM | – | –
COc1ccc(S(=O)(=O)N2[C@H](C(=O)NO)C[C@@H]3CCN(C(=O)C4CCCC4)C[C@@H]32)cc1 (relative stereo) [Example 7, rel-2S,3aS,7aR)-6-cyclopentylcarbonyl)-N-hydroxy-1-[(4-methoxyphenyl)sulfonyl]octahydro-1H-pyrrolo[2,3-c]pyridine-2-carboxamide] | 1100 nM | 790 nM | 610 nM | – | –
COc1ccc(S(=O)(=O)N2CC[C@H]3C[C@@H](C(=O)NO)N(S(=O)(=O)c4ccc(OC)cc4)[C@H]3C2)cc1 (relative stereo) [Example 10, rel-(2S,3aS,7aR)—N-hydroxy-1,6-bis[(4-methoxyphenyl)sulfonyl]octahydro-1H-pyrrolo[2,3-c]pyridine-2-carboxamide] | 1800 nM | 1600 nM | 950 nM | – | –
CS(=O)(=O)N1CC[C@H]2C[C@@H](C(=O)NO)N(S(=O)(=O)c3ccc(Oc4ccncc4)cc3)[C@H]2C1 (relative stereo) [Example 11, rel-(2S,3aS,7aR)—N-hydroxy-6-(methylsulfonyl)-1-{[4-(pyridin-4-yloxy)phenyl]sulfonyl}octahydro-1H-pyrrolo[2,3-c]pyridine-2-carboxamide] | 870 nM | 370 nM | 80 nM | – | 38%
CCN(CC)C(=O)CN1CC[C@H]2C[C@@H](C(=O)NO)N(S(=O)(=O)c3ccc(OC)cc3)[C@H]2C1 (relative stereo) [Example 14, rel-(2S,3aS,7aR)-6-[2-(diethylamino)-2-oxoethyl]-N-hydroxy-1-[(4-methoxyphenyl)sulfonyl]octahydro-1H-pyrrolo[2,3-c]pyridine-2-carboxamide] | 1500 nM | 1200 nM | 930 nM | – | –

Second part, led by results:

IC50 [1] | IC50 (MMP-2) | IC50 (metalloelastase (MMP-12)) | SMILES | % inhibition of IL-2-induced peritoneal recruitment of lymphocytes ([2]; 3 mg/kg) | % inhibition of IL-2-induced peritoneal recruitment of lymphocytes ([2]; 10 mg/kg)
1700 nM | 2100 nM | 1100 nM | COc1ccc(S(=O)(=O)N2[C@H](C(=O)NO)C[C@@H]3CCN(C(=O)c4ccccc4)C[C@@H]32)cc1 (relative stereo) [Example 1, rel-(2S,3aS,7aR)-6-benzoyl-N-hydroxy-1-[(4-methoxyphenyl)sulfonyl]octahydro-1H-pyrrolo[2,3-c]pyridine-2-carboxamide] | – | –
41 nM | 50 nM | 50 nM | COc1ccc(S(=O)(=O)N2[C@H](C(=O)NO)C[C@@H]3CCN(C(=O)CCc4ccccc4)C[C@@H]32)cc1 (relative stereo) [Example 8, rel-(2S,3aS,7aR)—N-hydroxy-1-[(4-methoxyphenyl)sulfonyl]-6-(3-phenylpropanoyl)octahydro-1H-pyrrolo[2,3-c]pyridine-2-carboxamide] | 33% | –
1600 nM | 1700 nM | 1200 nM | COc1ccc(S(=O)(=O)N2[C@H](C(=O)NO)C[C@@H]3CCN(C(=O)c4ccc(-c5ccccc5)cc4)C[C@@H]32)cc1 (relative stereo) [Example 12, rel-(2S,3aS,7aR)-6-(biphenyl-4-ylcarbonyl)-N-hydroxy-1-[(4-methoxyphenyl)sulfonyl]octahydro-1H-pyrrolo[2,3-c]pyridine-2-carboxamide] | – | –
430 nM | 320 nM | 340 nM | COc1ccc(S(=O)(=O)N2[C@H](C(=O)NO)C[C@@H]3CCN(C(=O)Nc4ccccc4)C[C@@H]32)cc1 (relative stereo) [Example 16, rel-(2S,3aS,7aR)—N^2-hydroxy-1-[(4-methoxyphenyl)sulfonyl]-N^6-phenyloctahydro-6H-pyrrolo[2,3-c]pyridine-2,6-dicarboxamide] | – | –
680 nM | 490 nM | 400 nM | COc1ccc(S(=O)(=O)N2[C@H](C(=O)NO)C[C@@H]3CCN(C(=O)OCc4ccccc4)C[C@@H]32)cc1 (relative stereo) [Example 18, benzyl rel-(2S,3aS,7aR)-2-[(hydroxyamino)carbonyl]-1-[(4-methoxyphenyl)sulfonyl]octahydro-6H-pyrrolo[2,3-c]pyridine-6-carboxylate] | – | –
